Measured values from ChEMBL document CHEMBL2396606, “Discovery of novel HCV inhibitors: synthesis and biological activity of 6-(indol-2-yl)pyridine-3-sulfonamides targeting hepatitis C virus NS4B” (Bioorg Med Chem Lett, 2013).

Columns and labels:
Assay type in all cases: ADME, organism-based
[1] = AUC (0 to infinity) in Sprague-Dawley rat at 10 mg/kg, po; parameters: time infinity, dose 10 mg/kg, route oral; settings: plasma
[2] = Volume of distribution at steady state in Sprague-Dawley rat at 10 mg/kg, po and 5 mg/kg, iv; settings: in vivo, read-out: Vdss
[3] = AUC (0 to 6 hrs) in Sprague-Dawley rat at 10 mg/kg, po; parameters: time < 6 hr, dose 10 mg/kg, route oral; settings: plasma
[4] = Oral bioavailability in Sprague-Dawley rat at 10 mg/kg; settings: in vivo
[5] = Cmax in Sprague-Dawley rat at 10 mg/kg, po; parameters: dose 10 mg/kg, route oral; settings: in vivo
[6] = AUC (0 to infinity) in Sprague-Dawley rat at 5 mg/kg, iv; parameters: time infinity, dose 5 mg/kg, route intravenous; settings: plasma
[7] = Tmax in Sprague-Dawley rat at 10 mg/kg, po; parameters: dose 10 mg/kg, route oral; settings: in vivo

| SMILES | AUC(0-inf) [1] | Vd [2] | AUC(0-t) at 6 h [3] | bioavailability [4] | Cmax [5] | AUC(0-inf) [6] | Tmax [7] |
| --- | --- | --- | --- | --- | --- | --- | --- |
| N#Cc1c(-c2ccc(S(=O)(=O)NC(CF)CF)cn2)n(C2CCC2)c2cc(OC(F)F)ccc12 | 16 µM·h | 4.7 L/kg | 3.42 µM·h | 62% | 348 ng/mL | 13 µM·h | 3 h |
| N#Cc1c(-c2ccc(S(=O)(=O)NC(CF)CF)cn2)n(C2CCC2)c2cc(C3CC3)ccc12 |  |  | 6.2 µM·h |  | 759 ng/mL |  | 2 h |
| CC(C)NS(=O)(=O)c1ccc(-c2c(C#N)c3ccc(OC(F)F)cc3n2C2CCC2)nc1 |  |  | 0.579 µM·h |  | 53 ng/mL |  | 2 h |
| CC(C)NS(=O)(=O)c1ccc(-c2c(C#N)c3ccc(C4CC4)cc3n2C2CCC2)nc1 |  |  | 0.964 µM·h |  | 87 ng/mL |  | 2 h |
